Measurements: patent publication US20200370056A1, “CELL LINES AND METHODS FOR INCREASED PROTEIN PRODUCTION” (ASTRAZENECA AB, priority 2017, published 2020)

Key:
ULK1 = target: T1, ULK1 (Homo sapiens, UniProt O75385); details: cited from earlier work
T1 sequence (O75385 1-1050): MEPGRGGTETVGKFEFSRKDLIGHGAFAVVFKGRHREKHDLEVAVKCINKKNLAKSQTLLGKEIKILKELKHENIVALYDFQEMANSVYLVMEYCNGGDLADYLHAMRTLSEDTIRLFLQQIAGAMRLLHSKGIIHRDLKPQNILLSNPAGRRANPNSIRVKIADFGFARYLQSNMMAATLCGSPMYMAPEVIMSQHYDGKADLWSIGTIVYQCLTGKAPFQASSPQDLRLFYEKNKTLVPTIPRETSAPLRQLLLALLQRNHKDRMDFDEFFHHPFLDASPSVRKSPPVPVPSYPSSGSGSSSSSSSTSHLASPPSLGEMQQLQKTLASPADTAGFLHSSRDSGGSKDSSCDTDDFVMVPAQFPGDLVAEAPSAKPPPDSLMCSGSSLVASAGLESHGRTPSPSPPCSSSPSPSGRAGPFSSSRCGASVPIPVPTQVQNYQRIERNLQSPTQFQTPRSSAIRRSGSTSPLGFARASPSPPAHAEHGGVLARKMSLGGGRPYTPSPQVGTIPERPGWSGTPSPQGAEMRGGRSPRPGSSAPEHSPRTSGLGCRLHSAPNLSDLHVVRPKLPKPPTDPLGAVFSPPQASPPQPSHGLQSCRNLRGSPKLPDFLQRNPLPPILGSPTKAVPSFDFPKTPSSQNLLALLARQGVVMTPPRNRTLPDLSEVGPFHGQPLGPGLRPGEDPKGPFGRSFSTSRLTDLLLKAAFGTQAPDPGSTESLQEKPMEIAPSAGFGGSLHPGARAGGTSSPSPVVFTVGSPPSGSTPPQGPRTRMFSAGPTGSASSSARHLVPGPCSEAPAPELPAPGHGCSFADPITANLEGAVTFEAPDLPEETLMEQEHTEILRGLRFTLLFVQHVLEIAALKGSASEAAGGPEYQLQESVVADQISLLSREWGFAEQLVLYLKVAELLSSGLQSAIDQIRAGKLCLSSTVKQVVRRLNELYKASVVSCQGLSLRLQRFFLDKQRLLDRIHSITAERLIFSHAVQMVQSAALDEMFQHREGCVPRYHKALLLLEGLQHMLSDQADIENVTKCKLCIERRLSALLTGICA

[1] = tested on: HEK293 CriptoFC 1B8 cell line; test: Cripto-FC expression by flow cytometry, concentration response; type: cell-based; details: Homo sapiens, Cripto-FC model protein, 10 point concentration response, top concentration 6 μM, read-out: pAC50 for Improved Protein Expression, Cripto-FC (converted)
Procedure: Human Embryonic Kidney (HEK) cells, Expi293F cell line, were co-transfected using Expifectamine with vectors for targeted integration of one of three model proteins, Cripto-Fc, PLAP and hGFRα2, and a vector expressing Zinc Finger Nucelases that target the AAVS1 locus in the genome. As shown below in Table 3, Cripto-Fc served as a high volume expressing protein, PLAP a medium expressing protein, and hGFRα2 as a low expressing protein. After 48 hours, selection with puromycin blasticidin were applied to enrich for cells with the vectors integrated. After 14 days, cells were sorted by flow cytometry as single cells in 96 well plates. After single colonies were isolated the cells were expanded and analyzed to determine the gene copy number of the recombinant target gene in each clone. […]
To confirm hits from the primary screen, the available positive hits were subjected to the counter screening without addition of antibody-conjugates to remove flourescent compounds. In parallel, a 10 point concentration response curve with a top concentration of 6 μM for each of the compounds was determined. Only compounds that lacked inherent fluorescence, and increased protein expression with at least 30% in a dose-dependent mariner were counted as confirmed hits. […]

HEK293 PLAP cell line = test: PLAP expression by secreted enzymatic activity (p-Nitrophenyl phosphate, 405 nm); type: cell-based; details: Homo sapiens, PLAP model protein, enzymatic activity readout, read-out: pAC50 for Improved Protein Expression, PLAP (converted)
Procedure: An additional study was performed on different cells expressing GRFα2 and PLAP. The same assay performed on HEk293 CriptoFC 1B8 was performed on a cell line containing a single gene copy of GFRA2. […] The activity measurement for PLAP is based on the degradation of p-Nitrophenyl phosphate to p-Nitrophenyl which can be followed as an increase in absorbance at 405 nm.

## CN1CCc2cc(Nc3ncc(C4CC4)c(NCCCNC(=O)C4CCC4)n3)ccc2C1 [MRT68921]
ULK1
  IC50: ~2.9 nM
[1]
  AC50: 79.4 nM
HEK293 PLAP cell line
  AC50: 60.3 nM
